Data set [1] deals with Wistar Han Crl:WI(Han) male rats. The data set is described as follows: In vivo nephrotoxicity in rats. As for the experimental part: Purpose bred Wistar Han Crl:WI(Han) male rats obtained from Charles River Laboratories at 7 to 8 weeks of age were divided into groups of 4 (table 1, exp. A) or 8 (table 1, exp. B) based on body weight and acclimatized for at least 5 days before dosing. The animals were housed under standard environmental conditions ([…], relative humidity 50±20%, a light/dark cycle 12 h/12 h, pelleted food and water ad libitum), were offered enriched environment in an AAALAC accredited facility and were regularly and carefully monitored. All procedures were in accordance with the respective local regulations and according to the animal permissions granted by the Institutional Animal Care and Use Committee. Test compounds were formulated in isotonic sterile saline, sterile filtered (0.22 μm), and dosed at 40 mg/kg on days 1 and 8 (2.5 ml/kg) in the intrascapular region. Control group animals received saline as vehicle control. On day 15 animals were orally administered tap water (10 ml/kg), and urine was collected on ice for 6 hours in metabolic cages. […] On day 15 the rats were sacrificed by an intraperitoneal injection of pentobarbital and exsanguinated. Kidney cortex samples were collected and fixed by immersion in 10% neutral buffered formalin, embedded in paraffin, sectioned to 5 μm and stained with hematoxylin and eosin (H&). The H&E sections were then scanned at 20× magnification using an Aperio ScanScope AT™ (Leica Biosystems) scanner and pictures were then captured via ImageScope™ software from the scanned images. One or more of the following parameters were assessed kidney weight, serum creatinine, urine protein, KIM-1 protein in urine, KIM-1 mRNA, kidney degeneration/regeneration and relative tubulotoxicity grade.

Data set [2] concerns Primary human hepatocytes. Kind of data set: EGF assay, culture media of primary human hepatocytes.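 Note: values as percent of saline vehicle control.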 Conditions: 10 ng/ml EGF in medium. The data set is classed as cell-based. As for the experimental part:
Cryopreserved human hepatocytes were suspended in William's Medium E (WME) without phenol red (Sigma W-1878) supplemented with 10% fetal calf serum, penicillin (100 U/ml), streptomycin (0.1 mg/ml) at a density of approx. 1×10^6 cells/ml and seeded into collagen-coated 96-well plates (Becton Dickinson AG, Allschwil, Switzerland) at a density of 0.4×10^5 cells/well. Cells were pre-cultured for 3 to 4 h allowing for attachment to cell culture plates before start of treatment with oligonucleotides.
Before oligonucleotide treatment the seeding medium was replaced by 90 μl of serum free WME.
The total volume of each well was 100 μl. PBS served as vehicle control.
Human primary hepatocytes were cultivated as described in the “Materials and methods” section with addition of 10 ng/ml of EGF to the medium. At confluence the cells were treated with oligonucleotide as described in the “Materials and methods” section, in concentrations of 10 or 100 μM.
The medium was obtained at day 3, and the EGF level was measured according to the assay described in the “Materials and methods” section.

Data set [3] has as its system A549 cells. The data set is described as follows: EGF assay, A549 cells transfected with oligonucleotide.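 Note: values as percent of saline control.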 The following applies: A549, 48 hours after transfection. The data set is classed as cell-based, human. As for the experimental part: (§1) A549 cells (ATCC CCL-185) were cultivated according to the manufacturer's instructions in A549 medium [F-12K Nut Mix (Gibco, 21127-022), 1% penicillin/streptomycin (Gibco: 15140-122), 10% FBS (Gibco 16000-044)].
(§2) Prior to treatment with oligonucleotides the A549 cells were seeded in 96 well plates at 3′000 cells per well in A549 regular medium and grown until 60% confluence. […]
(§3) A549 were cultivated as described in the “Materials and methods” section. At after at 50-60% confluence the oligonucleotides were transfected into the cells using 0.5 μl Lipofectamin (Invitrogen, 11668-019) in 25 μl OptiMEM® (GIBCO 31985062) and 1 ng or 10 ng oligonucleotide in the same volume OptiMEM. The cells were incubated over night at 37° C. The medium was changed using A459 regular medium+10 ng/ml EGF. 48 hours after transfection the medium was collected for EGF measurements and the cells were harvested for ATP measurements.

The test system of data set [4] is A549 cells. Kind of data set: Intracellular ATP assay, A549 cells transfected with oligonucleotide.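 Note: ATP as percent of saline control.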 The format is cell-based, human. The following applies: A549, 48 hours after transfection. As for the experimental part:
as §1, §2
Each sample was tested in triplicate.
as §3

Data set [5] deals with PCSK9 mRNA. Kind of data set: Target knock down (PCSK9 mRNA levels) in PTEC-TERT1 cells. The data set is classed as cell-based, human. Conditions: normalized to PPIB. As for the experimental part:
For assessment of the target knock down (PCSK9 mRNA levels) total mRNA was extracted from the cells adding 100 μl of 1× RNA lysis mixture (QuantiGene® Sample Processing Kit, QS0101) directly into the wells according to the manufacturer's instructions. RNA lysis mixtures were kept at −80° C. until analysis. For gene expression analysis, 20 μl of lysates were mixed with an mRNA-capture magnetic beads sets (Panomics QuantiGene® Plex Set catalog #12697), incubated overnight, processed for branched DNA amplification and analyzed according to the manufacturer's instructions (Panomics QuantiGene® Plex Assay kit, QP1015). The PPIB probe was used as housekeeping gene for normalization. Average Fluoresence Intensity (FI) and standard deviation of 3 biological replicates were calculated and normalized on vehicle control. The results are shown in table 11, and represent the average of three identical treatments.

Data set [6] has as its system PTEC-TERT1 cells. Kind of data set: EGF assay, supernatant of PTEC-TERT1 cells. The following applies: for Toxicity grade: from EGF, assay window saline vs toxic reference compound 4-1.
Procedure: (§4) Prior to treatment with oligonucleotides the PTEC-TERT1 were seeded into collagen I-coated 96-well plates (Corning, 356407) at a density of 40 000 and 20 000 cells/well respectively in PTEC medium and grown until confluence.
(§5) Oligonucleotides were dissolved in PBS and added to the cell culture at the given concentration, such as 10, 30 or 100 μM. The total volume of each well was 100 μl. PBS served as vehicle control.
(§6) When extra cellular markers, like EGF and KIM-1, were analyzed following the oligonucleotide treatment the medium was collected and stored at −20° C. until further analysis. […] The collected medium was stored at −20° C.
(§7) For analysis of human EGF, cell supernatants were thawed on ice, diluted 1:2 and 1:10 in sample dilution buffer (BioRad catalog # M60-009RDPD) and analyzed by Luminex®-based ELISA using human EGF beads (Bio-Plex Pro™ Human Cancer Biomarker Panel 2 EGF Set#171BC603M), or followed by analysis using the Bio-Plex® 200 Systems (BioRad) according to the manufacturer's instructions. Data are reported as mean concentrations and standard deviations of triplicate wells.
In data set [7] the test system is PTEC-TERT1 cells. The data set is described as follows: Morphological changes of PTEC-TERT1 cells upon oligonucleotide treatment. Conditions: 100 μM oligonucleotide, 7 days, bright field microscopy, vs saline. The data set is classed as cell-based, human. As for the experimental part: PTEC-TERT1 cells were cultures as described in the “Materials and methods” section. To mimic the physiological exposure of renal tubules to circulating naked oligonucleotide (i.e. without assistance of delivery technology, herein termed gymnosis or gymnotic delivery), confluent monolayers of PTEC-TERT1 cells were exposed to an aqueous solution of 100 μM oligonucleotide. The medium was replaced every three days including 100 μM fresh oligonucleotide in the fresh medium.
After 7 days of treatment the morphological alterations in the treated cell cultures were investigated under bright field microscopy.

Data set [8] concerns Human primary proximal tubule epithelial cells (PTEC). Kind of data set: EGF assay, supernatant of primary PTEC cells.
Procedure: Prior to treatment with oligonucleotides the primary PTEC cells were seeded into collagen I-coated 96-well plates (Corning, 356407) at a density of 40 000 and 20 000 cells/well respectively in PTEC medium and grown until confluence.
as §5, §6
For analysis of human EGF, cell supernatants were thawed on ice, diluted 1:2 and 1:10 in sample dilution buffer (BioRad catalog # M60-009RDPD) and analyzed by Luminex®-based ELISA using human EGF beads (Bio-Plex Pro™ Human Cancer Biomarker Panel 2 EGF Set#171BC603M), or followed by analysis using the Bio-Plex® 200 Systems (BioRad) according to the manufacturer's instructions. Data are reported as mean concentrations and standard deviations of triplicate wells. An increase of EGF levels above 200% was considered as predictive for nephrotoxicity.
The test system of data set [9] is PTEC-TERT1 cells.
Procedure: as §4, §5, §6, §7
For data set [10], the system named is PTEC-TERT1 cells. The source holds these as a separate data set.
Procedure: as §4, §5, §6
For analysis of human KIM-1, cell supernatants were thawed on ice, diluted 1:2 and 1:10 in sample dilution buffer (BioRad catalog # M60-009RDPD) and analyzed by Luminex®-based ELISA using human KIM-1 beads (Human Kidney Injury panel 4, Millipore HKI4MAG-99K-KIM1) followed by analysis using the Bio-Plex® 200 Systems (BioRad) according to the manufacturer's instructions. Data are reported as mean concentrations and standard deviations of triplicate wells. An increase of KIM-1 levels above 200% was considered as predictive for nephrotoxicity.
Where [11] appears, read: PTEC-TERT1, Day 3, 11 μM (Table 3).
Setting [12] is: PTEC-TERT1, Day 3, 33 μM (Table 3).
[13] abbreviates: PTEC-TERT1, Day 3, 100 μM (Table 3).
Setting [14] is: PTEC-TERT1, Day 7, 11 μM (Table 3).
Setting [15] is: PTEC-TERT1, Day 7, 33 μM (Table 3).
[16] abbreviates: PTEC-TERT1, Day 7, 100 μM (Table 3).
Where [17] appears, read: PTEC-TERT1, Day 10, 11 μM (Table 3).
[18] abbreviates: PTEC-TERT1, Day 10, 33 μM (Table 3).
Where [19] appears, read: PTEC-TERT1, Day 10, 100 μM (Table 3).

l = locked nucleic acid (LNA); d = 2'-deoxy (DNA)

For the substance “AATgctacaaaaCCCA (antisense AATGCTACAAAACCCA; sugars from the 5' end l3 d9 l4, backbone and methylation of C not given here) [Compound 2-1]”, the “In vivo nephrotoxicity / in vivo grade of toxicity” value in [1] (40 mg/kg on days 1 and 8, assessed day 15, 40 mg/kg) was “low and Low”. Further, the EGF in [2] (day 3, 10 μM) was determined as 122 % saline; in data set [2] (day 3, 100 μM), 211 % saline; in [3] (1 ng oligonucleotide), 80 % saline; in data set [3] (10 ng oligonucleotide), 161 % saline; in [6] (setting [11]), 135 % saline; in data set [6] (setting [12]), 192 % saline. Besides, the EGF in data set [6] (setting [13]) turned out to be 172 % saline; in data set [6] (setting [14]), 69 % saline; in data set [6] (setting [15]) it was 88 % saline; in data set [6] (setting [16]), 117 % saline; in data set [6] (setting [17]), 47 % saline; in data set [6] (setting [18]), 63 % saline. In addition, the EGF in [6] (setting [19]) is listed as 154 % saline. For the same substance, the ATP in data set [4] (1 ng oligonucleotide) worked out at 96 % saline; in data set [4] (10 ng oligonucleotide), 59 % saline. For the same substance, the “PCSK9 mRNA” value in data set [5] (PTEC-TERT1, EGF 0 ng/ml in medium) is 1.73 % of saline; in [5] (PTEC-TERT1, EGF 10 ng/ml in medium), 1.02 % of saline.
As to “ACTgctttccactCTG (ACTGCTTTCCACTCTG; chemistry not given here) [Compound 8-1]”, the EGF in [3] (1 ng oligonucleotide) came out at 140 % saline; in data set [3] (10 ng oligonucleotide) it was 233 % saline; in data set [6] (PTEC-TERT1, 6 days, 10 μM oligonucleotide (Table 7)) it was 8412 % saline; in [6] (PTEC-TERT1, 6 days, 30 μM oligonucleotide (Table 7)) it was 15126 % saline; in data set [6] (PTEC-TERT1, Day 6, 10 μM (Table 4)), 1153 % saline; in data set [6] (PTEC-TERT1, Day 6, 30 μM (Table 4)), 1359 % saline. The same substance came in with an EGF in [6] (PTEC-TERT1, Day 6, 100 μM (Table 4)) of 1545 % saline. Moreover, the figures for the ATP in data set [4] (1 ng oligonucleotide) and in data set [4] (10 ng oligonucleotide) were 101 % saline and 58 % saline, respectively. The Toxicity grade in data set [6] (PTEC-TERT1, 6 days, 10 μM) was found to be 323; in data set [6] (PTEC-TERT1, 6 days, 30 μM) it was 208.
As for “CGTcagtatgcgAATc (CGTCAGTATGCGAATC; chemistry not given here) [Compound 1-1]”, the morphological changes entry in [7] is recorded as “did not show any morphological changes”. The EGF came to 123 % saline in data set [2] (day 3, 10 μM); 159 % saline in data set [2] (day 3, 100 μM); 69 % saline in data set [3] (1 ng oligonucleotide); 75 % saline in [3] (10 ng oligonucleotide); 88 % saline in [6] (PTEC-TERT1, Day 3, 3 μM (Table 2)); 93 % saline in data set [6] (PTEC-TERT1, Day 3, 10 μM (Table 2)). Besides, the EGF in data set [6] (setting [11]) is given as 145 % saline; in data set [6] (PTEC-TERT1, Day 3, 30 μM (Table 2)) it was 108 % saline; in [6] (setting [12]) it was 214 % saline; in data set [6] (PTEC-TERT1, Day 3, 100 μM (Table 2)), 119 % saline; in data set [6] (setting [13]), 137 % saline; in [6] (PTEC-TERT1, Day 6, 3 μM (Table 2)) it was 124 % saline. The EGF in data set [6] (PTEC-TERT1, Day 6, 10 μM (Table 2)) is 152 % saline; in data set [6] (PTEC-TERT1, Day 6, 30 μM (Table 2)), 180 % saline; in data set [6] (PTEC-TERT1, Day 6, 100 μM (Table 2)) it was 172 % saline; in data set [6] (setting [14]), 94 % saline; in data set [6] (setting [15]), 122 % saline; in data set [6] (setting [16]), 135 % saline. The EGF in data set [6] (setting [17]) amounted to 32 % saline; in data set [6] (setting [18]), 41 % saline; in data set [6] (setting [19]), 59 % saline; in data set [8] (Day 3, 3 μM), 95 % saline; in [8] (Day 3, 10 μM), 99 % saline; in [8] (Day 3, 30 μM), 112 % saline. Besides, the EGF in data set [8] (Day 3, 100 μM) was found to be 120 % saline; in data set [8] (Day 6, 3 μM), 62 % saline; in data set [8] (Day 6, 10 μM), 71 % saline; in data set [8] (Day 6, 30 μM) it was 77 % saline; in data set [8] (Day 6, 100 μM) it was 98 % saline. Also, the ATP in data set [4] (1 ng oligonucleotide) stood at 89 % saline; in data set [4] (10 ng oligonucleotide), 100 % saline.
As for “Compound 20-1: antisense oligonucleotide comprising 2′-O-methoxyethyl-RNA (MOE) modifications, targeting sodium-glucose co-transporter 2 (SGLT2), SEQ ID NO 20 (GGCATGAGCTTC; MOE modifications, pattern not given here)”, the “In vivo nephrotoxicity / in vivo grade of toxicity” value in data set [1] (40 mg/kg on days 1 and 8, assessed day 15) is on record as “low/medium”. Further, the “prediction of in vivo nephrotoxicity with EGF as biomarker” value in [9] is reported as “could be predicted”. In addition, the “predictive KIM-1 elevation” value in data set [10] was “observed”.
